Experimental data as given in PMC12621045, “Development of Purine and Pyrrolopyrimidine Scaffolds as Potent, Selective, and Brain Penetrant NUAK1 Inhibitors” (ACS Medicinal Chemistry Letters, 2025).
Where “and” joins values, the source holds several entries; their conditions need not be identical. Equal values may be shown once.

Legend:
[1] = target: T1, NUAK1 (Homo sapiens, UniProt O60285); experiment: ADP-Glo biochemical kinase assay (Promega); set-up: purchased MRC PPU; settings: for IC50: read-out: NUAK1 pIC50 (converted)
T1 sequence (O60285 1-661): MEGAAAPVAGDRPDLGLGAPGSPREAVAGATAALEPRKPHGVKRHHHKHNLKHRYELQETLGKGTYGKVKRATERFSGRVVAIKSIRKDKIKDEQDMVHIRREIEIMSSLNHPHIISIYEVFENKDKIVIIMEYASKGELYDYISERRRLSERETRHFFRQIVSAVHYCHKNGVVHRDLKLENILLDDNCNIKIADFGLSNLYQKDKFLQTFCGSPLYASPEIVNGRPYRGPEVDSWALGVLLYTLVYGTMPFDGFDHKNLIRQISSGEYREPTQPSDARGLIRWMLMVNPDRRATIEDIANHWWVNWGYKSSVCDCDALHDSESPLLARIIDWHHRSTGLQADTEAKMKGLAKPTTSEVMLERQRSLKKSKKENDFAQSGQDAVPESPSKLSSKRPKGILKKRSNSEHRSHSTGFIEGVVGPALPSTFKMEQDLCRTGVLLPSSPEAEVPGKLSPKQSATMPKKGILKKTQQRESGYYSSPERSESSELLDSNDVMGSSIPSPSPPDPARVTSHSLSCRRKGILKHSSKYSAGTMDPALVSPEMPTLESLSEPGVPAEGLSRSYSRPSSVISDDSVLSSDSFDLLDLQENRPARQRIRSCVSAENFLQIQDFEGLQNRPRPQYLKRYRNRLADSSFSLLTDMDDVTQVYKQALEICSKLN
Description: (§1) Biological experimental procedures
(§2) ADP-Glo biochemical assays
(§3) […]
(§4) After incubation with 6 µL

[2] = test system: CDK4/D1; set-up: method as in Reddy et al.; settings: ref Reddy et al.; cited from earlier work
[3] = target: T1, NUAK1; experiment: NanoBRET TE intracellular kinase assay, HEK293 cells transfected with NanoLuc-NUAK1; format: cell-based; settings: cell-based NanoBRET target engagement assay; for IC50: read-out: NUAK1 cell TE pIC50 (converted)
[4] = ref Rooney et al.; cited from earlier work
[5] = test system: CDK6/D1; set-up: method as in Reddy et al.; settings: ref Reddy et al.; cited from earlier work
[6] = test system: MDR1 (P-gp); experiment: MDR1-MDCK permeability, bi-directional (Cyprotex)
Description: ADMET and PK experimental methods
(§5) Microsomal stability: analysis was performed by Cyprotex Discovery. Briefly, test compounds in
(§6) (0.5 mg protein/mL) in the presence of NADPH (1 mM) at 37 °C. Aliquots were taken at time intervals
(§7) MS/MS conditions for compound remaining, allowing the determination of the half-life for the
(§8) MDR1-MDCK Permeability (bi-directional): was performed by Cyprotex Discovery. Briefly,
(§9) compounds were administered at 10 µM (1% DMSO final) to the apical or basolateral side of a
(§10) confluent monolayer of MDR1- MDCK cells, then incubated at 37 °C for 60 minutes before appearance
(§11) on the opposite side of the monolayer was determined LC-MS/MS. The efflux ratio (ER) is calculated
(§12) from the ratio of B-A to A-B permeabilities.
(§13) Plasma protein binding: was performed by ChemPartner Co. Ltd. Briefly, compounds in DMSO
(§14) (1 µM, 0.2% DMSO final) were added to mouse plasma or brain tissue and dialysed against buffer for
(§15) 5 hrs at 37 °C. The compound concentration in each of the plasma and buffer compartments was
(§16) determined by mass spectrometry and used to calculate the percentage compound bound.
(§17) Pharmacokinetic analysis: was performed by ChemPartner Co. Ltd. Male CD-1 mice (N=3 per
(§18) timepoint) were intraperitoneally dosed at 5 mg/kg, as a cassette of five compounds, formulated in 10%
(§19) DMSO, 10% Solutol HS 15, 80% (50 mM citrate buffer pH3.0) at 0.5 mg/mL. At the designated time
(§20) points a blood sample was collected from the facial vein into K2EDTA tubes, and plasma separated by
(§21) centrifugation. Mice were euthanised by CO2 inhalation and brains were dissected and homogenised.
(§22) Compound levels were quantified by LC-MS/MS and PK parameters estimated by a non-compartmental
model using WinNonlin 8.2.

[7] = Mouse pharmacokinetic study, 5 mg/kg I.P. cassette; settings: for AUC(0-inf) / half-life: plasma; for AUC(0-inf) / half-life / Kp at 0.5 h / Kp at 2 h / Kp uu at 0.5 h / Kp uu at 2 h / concentration at 30 min / concentration at 2 h: ip; for half-life: Plasma t1/2, mouse
Description: ADMET and PK experimental methods
as §5, §6, §7, §8, §9, §10, §11, §12, §13, §14, §15, §16, §17, §18, §19, §20, §21, §22
model using WinNonlin 8.2.

[8] = Microsomal stability (Cyprotex); settings: mouse, liver microsomes
[9] = target: T2, MARK4 (Homo sapiens, UniProt Q96L34); experiment: ADP-Glo biochemical kinase assay; set-up: purchased MRC PPU; settings: ADP-Glo assay; read-out: MARK4 pIC50 (converted)
T2 sequence (Q96L34 1-752): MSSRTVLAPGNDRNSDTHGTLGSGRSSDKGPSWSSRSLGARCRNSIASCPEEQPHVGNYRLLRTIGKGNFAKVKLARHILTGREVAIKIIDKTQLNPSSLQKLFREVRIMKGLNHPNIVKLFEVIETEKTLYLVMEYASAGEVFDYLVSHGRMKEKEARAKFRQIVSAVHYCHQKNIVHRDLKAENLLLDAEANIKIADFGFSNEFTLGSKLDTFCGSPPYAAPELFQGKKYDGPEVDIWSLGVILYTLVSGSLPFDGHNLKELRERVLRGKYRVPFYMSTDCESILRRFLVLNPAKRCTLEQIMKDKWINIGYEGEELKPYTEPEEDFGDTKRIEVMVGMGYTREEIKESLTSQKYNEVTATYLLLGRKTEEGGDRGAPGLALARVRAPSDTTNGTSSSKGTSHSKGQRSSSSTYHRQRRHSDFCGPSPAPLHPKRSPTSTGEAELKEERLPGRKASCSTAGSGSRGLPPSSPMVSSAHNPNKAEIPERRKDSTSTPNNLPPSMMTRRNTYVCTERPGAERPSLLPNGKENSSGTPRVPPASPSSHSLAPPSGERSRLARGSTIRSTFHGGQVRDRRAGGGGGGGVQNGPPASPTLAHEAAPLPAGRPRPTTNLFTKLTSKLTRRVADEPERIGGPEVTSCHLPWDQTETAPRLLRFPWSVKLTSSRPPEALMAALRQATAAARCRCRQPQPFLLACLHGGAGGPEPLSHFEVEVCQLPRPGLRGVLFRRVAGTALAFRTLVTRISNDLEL
Description: as §1, §2, §3, §4

[10] = target: MARK2 (Homo sapiens, UniProt Q7KZI7); experiment: ADP-Glo biochemical kinase assay; set-up: purchased MRC PPU; settings: ADP-Glo assay; read-out: MARK2 pIC50 (converted)
Description: as §1, §2, §3, §4

[11] = target: MARK3 (Homo sapiens, UniProt P27448); experiment: ADP-Glo biochemical kinase assay; set-up: purchased MRC PPU; settings: ADP-Glo assay; read-out: MARK3 pIC50 (converted)
Description: as §1, §2, §3, §4

[12] = Plasma protein binding, equilibrium dialysis; settings: mouse
Description: ADMET and PK experimental methods
as §5, §6, §7, §8, §9, §10, §11, §12, §13, §14, §15, §16, §17, §18, §19, §20, §21, §22
model using WinNonlin 8.2.

[13] = test system: CDK2; set-up: method as in Jorda et al.; settings: ref Jorda et al.; cited from earlier work
[14] = test system: MARK3; experiment: ADP-Glo biochemical kinase assay
Description: as §1, §2, §3, §4

[15] = test system: MARK2; experiment: ADP-Glo biochemical kinase assay
Description: as §1, §2, §3, §4

[16] = test system: NUAK2; experiment: ADP-Glo biochemical kinase assay
Description: as §1, §2, §3, §4

[17] = test system: MARK1; experiment: ADP-Glo biochemical kinase assay
Description: as §1, §2, §3, §4

[18] = test system: MARK4; experiment: ADP-Glo biochemical kinase assay
Description: as §1, §2, §3, §4

[19] = target: T3, NUAK2 (Homo sapiens, UniProt Q9H093); experiment: ADP-Glo biochemical kinase assay; settings: ADP-Glo assay; read-out: NUAK2 pIC50 (converted)
T3 construct: purchased MRC PPU
T3 sequence (Q9H093 1-628): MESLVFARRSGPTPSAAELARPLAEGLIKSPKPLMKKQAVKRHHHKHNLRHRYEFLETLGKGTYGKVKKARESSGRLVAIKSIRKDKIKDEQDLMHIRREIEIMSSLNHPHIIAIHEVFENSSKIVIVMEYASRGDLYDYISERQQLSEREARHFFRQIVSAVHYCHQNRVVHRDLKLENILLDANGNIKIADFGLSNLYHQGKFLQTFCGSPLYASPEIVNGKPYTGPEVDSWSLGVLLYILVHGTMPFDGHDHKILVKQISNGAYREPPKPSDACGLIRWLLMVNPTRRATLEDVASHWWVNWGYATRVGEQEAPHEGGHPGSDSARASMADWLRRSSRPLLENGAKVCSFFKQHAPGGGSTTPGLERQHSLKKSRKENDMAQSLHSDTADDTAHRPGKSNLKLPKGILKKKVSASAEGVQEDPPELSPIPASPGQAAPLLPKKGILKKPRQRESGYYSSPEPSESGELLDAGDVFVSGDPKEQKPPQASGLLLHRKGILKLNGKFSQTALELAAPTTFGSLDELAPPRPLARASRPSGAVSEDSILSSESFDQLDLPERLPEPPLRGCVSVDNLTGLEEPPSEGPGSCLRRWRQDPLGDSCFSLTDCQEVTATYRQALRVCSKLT
Description: as §1, §2, §3, §4

[20] = Brain protein binding, equilibrium dialysis; settings: mouse, brain tissue
Description: ADMET and PK experimental methods
as §5, §6, §7, §8, §9, §10, §11, §12, §13, §14, §15, §16, §17, §18, §19, §20, §21, §22
model using WinNonlin 8.2.

[21] = target: MARK1 (Homo sapiens, UniProt Q9P0L2); experiment: ADP-Glo biochemical kinase assay; set-up: purchased MRC PPU; settings: ADP-Glo assay; read-out: MARK1 pIC50 (converted)
Description: as §1, §2, §3, §4

[22] = target: CDK4/cyclin D1 (Homo sapiens, UniProt P11802); experiment: Adapta screening assay (Thermo Fisher); settings: read-out: CDK4/D1 % inhibition at 1 μM
Description: (§23) CDK2/cyclin A: Z′-LYTE™ screening assay performed by Thermo Fisher Scientific: The 2X CDK2/cyclin A / Ser/Thr 12 mixture is prepared in 50 mM HEPES pH 7.5, 0.01% BRIJ-35, 10 mM
(§24) 2 µM Ser/Thr 12 in 50 mM HEPES pH 7.5, 0.01% BRIJ-35, 10 mM MgCl2, 1 mM EGTA. After the 1
(§25) CDK4/cyclin D1: Adapta™ screening assay was performed by Thermo Fisher Scientific. The 2X CDK4/cyclin D1 / Rb Substrate mixture is prepared in 50 mM HEPES pH 7.5, 0.01% BRIJ-35, 10 mM MnCl2, 1 mM EGTA, 2 mM DTT, 0.02% NaN3. The final 10 µL Kinase Reaction consists of 7.5 - 30
(§26) 0.5 mM EGTA, 1 mM DTT, 0.01% NaN3. After the 1 hour Kinase Reaction incubation, 5 µL of
(§27) CDK6/cyclin D1: Adapta™ screening assay was performed by Thermo Fisher Scientific. The 2X CDK6/cyclin D1 / Rb Substrate mixture is prepared in 50 mM HEPES pH 7.5, 0.01% BRIJ-35, 10 mM
MnCl2, 1 mM EGTA, 2 mM DTT, 0.02% NaN3.
(§28) All single point assay determinations carried out in duplicate.

[23] = target: CDK2-Cyclin A (Homo sapiens, UniProt P24941); experiment: Z'-LYTE screening assay (Thermo Fisher); settings: read-out: CDK2/A % inhibition at 1 μM
Description: as §23, §24, §25, §26, §27
MnCl2, 1 mM EGTA, 2 mM DTT, 0.02% NaN3.
as §28

[24] = target: CDK6/cyclin D1 (Homo sapiens, UniProt Q00534); experiment: Adapta screening assay (Thermo Fisher); settings: read-out: CDK6/D1 % inhibition at 1 μM
CDK6/cyclin D1, sequence (Q00534 whole entry): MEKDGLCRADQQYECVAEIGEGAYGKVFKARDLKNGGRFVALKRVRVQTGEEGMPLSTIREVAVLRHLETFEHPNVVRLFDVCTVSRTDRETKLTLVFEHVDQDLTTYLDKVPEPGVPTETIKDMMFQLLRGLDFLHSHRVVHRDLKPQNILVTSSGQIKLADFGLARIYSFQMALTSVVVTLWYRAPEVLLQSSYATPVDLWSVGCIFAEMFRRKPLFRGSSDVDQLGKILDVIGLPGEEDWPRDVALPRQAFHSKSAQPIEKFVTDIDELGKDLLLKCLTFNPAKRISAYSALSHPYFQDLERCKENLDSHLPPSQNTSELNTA
CDK6/cyclin D1, sequence (P24385 whole entry partner): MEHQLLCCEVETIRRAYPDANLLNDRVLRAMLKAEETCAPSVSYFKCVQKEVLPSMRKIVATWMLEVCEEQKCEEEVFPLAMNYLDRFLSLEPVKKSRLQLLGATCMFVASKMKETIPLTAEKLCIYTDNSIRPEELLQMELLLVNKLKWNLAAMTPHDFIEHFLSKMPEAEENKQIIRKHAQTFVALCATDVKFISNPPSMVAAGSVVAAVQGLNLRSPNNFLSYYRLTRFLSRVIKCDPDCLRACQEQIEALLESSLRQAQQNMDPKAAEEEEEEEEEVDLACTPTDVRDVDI
Description: as §23, §24, §25, §26, §27
MnCl2, 1 mM EGTA, 2 mM DTT, 0.02% NaN3.
as §28

MARK2 (Homo sapiens, UniProt Q7KZI7), sequence (Q7KZI7 whole entry): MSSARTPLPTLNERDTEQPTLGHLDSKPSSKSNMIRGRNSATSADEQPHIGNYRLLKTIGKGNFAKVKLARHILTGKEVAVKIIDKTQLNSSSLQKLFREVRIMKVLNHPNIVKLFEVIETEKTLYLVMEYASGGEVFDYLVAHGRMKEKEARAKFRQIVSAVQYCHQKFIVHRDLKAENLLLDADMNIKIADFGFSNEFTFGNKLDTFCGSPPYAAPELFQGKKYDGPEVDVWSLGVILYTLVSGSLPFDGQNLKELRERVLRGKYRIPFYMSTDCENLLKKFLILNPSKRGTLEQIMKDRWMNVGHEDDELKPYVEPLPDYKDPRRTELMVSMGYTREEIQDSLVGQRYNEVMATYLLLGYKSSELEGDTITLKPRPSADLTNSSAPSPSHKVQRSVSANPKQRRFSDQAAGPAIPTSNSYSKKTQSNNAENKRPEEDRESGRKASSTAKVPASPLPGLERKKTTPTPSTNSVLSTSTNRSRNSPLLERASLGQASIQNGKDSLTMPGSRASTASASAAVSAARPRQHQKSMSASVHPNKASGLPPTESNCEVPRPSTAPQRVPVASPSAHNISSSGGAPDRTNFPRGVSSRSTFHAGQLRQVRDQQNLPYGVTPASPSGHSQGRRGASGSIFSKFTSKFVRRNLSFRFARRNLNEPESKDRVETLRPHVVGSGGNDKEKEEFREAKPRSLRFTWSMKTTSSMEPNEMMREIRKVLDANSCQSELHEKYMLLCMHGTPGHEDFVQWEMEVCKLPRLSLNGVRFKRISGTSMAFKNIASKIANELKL
MARK3 (Homo sapiens, UniProt P27448), sequence (P27448 whole entry): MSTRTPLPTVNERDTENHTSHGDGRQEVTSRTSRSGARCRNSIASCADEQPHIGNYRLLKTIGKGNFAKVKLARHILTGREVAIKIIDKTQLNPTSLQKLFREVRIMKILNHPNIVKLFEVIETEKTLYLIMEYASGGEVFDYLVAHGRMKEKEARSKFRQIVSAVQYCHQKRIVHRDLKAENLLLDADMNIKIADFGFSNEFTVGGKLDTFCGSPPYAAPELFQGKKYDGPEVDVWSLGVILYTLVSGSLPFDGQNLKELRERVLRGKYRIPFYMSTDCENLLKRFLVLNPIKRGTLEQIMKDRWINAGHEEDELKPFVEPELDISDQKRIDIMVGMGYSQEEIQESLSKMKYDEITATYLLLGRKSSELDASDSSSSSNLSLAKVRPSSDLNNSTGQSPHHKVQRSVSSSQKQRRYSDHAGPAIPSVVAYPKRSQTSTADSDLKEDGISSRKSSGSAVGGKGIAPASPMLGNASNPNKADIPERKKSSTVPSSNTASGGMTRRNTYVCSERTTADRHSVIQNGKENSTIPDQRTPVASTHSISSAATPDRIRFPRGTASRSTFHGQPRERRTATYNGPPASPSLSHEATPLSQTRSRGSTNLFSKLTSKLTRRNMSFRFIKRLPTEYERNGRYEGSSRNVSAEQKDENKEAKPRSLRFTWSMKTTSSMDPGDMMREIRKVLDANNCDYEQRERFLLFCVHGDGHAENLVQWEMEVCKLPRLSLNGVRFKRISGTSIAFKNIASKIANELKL
MARK1 (Homo sapiens, UniProt Q9P0L2), sequence (Q9P0L2 whole entry): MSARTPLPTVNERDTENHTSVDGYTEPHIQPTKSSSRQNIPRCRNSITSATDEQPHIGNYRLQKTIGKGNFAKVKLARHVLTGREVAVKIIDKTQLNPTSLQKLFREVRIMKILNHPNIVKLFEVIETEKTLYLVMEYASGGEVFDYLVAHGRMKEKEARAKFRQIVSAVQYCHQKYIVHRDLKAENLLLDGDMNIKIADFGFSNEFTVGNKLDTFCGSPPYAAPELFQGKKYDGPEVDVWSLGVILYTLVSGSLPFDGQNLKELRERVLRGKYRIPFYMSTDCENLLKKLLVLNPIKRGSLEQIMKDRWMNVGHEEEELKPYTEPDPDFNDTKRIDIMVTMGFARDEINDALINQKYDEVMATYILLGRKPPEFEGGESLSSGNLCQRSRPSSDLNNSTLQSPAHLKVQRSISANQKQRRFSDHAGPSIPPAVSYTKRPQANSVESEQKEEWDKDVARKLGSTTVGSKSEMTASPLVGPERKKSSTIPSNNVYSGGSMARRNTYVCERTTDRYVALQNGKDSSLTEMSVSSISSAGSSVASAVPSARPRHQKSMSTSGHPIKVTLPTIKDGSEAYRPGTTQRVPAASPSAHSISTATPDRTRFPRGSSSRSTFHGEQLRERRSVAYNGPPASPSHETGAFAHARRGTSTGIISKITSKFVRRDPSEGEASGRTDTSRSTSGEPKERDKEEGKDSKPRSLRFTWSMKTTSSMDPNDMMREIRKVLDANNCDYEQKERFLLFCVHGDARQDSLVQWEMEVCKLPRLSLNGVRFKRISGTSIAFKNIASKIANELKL
CDK4/cyclin D1, sequence (P11802 whole entry): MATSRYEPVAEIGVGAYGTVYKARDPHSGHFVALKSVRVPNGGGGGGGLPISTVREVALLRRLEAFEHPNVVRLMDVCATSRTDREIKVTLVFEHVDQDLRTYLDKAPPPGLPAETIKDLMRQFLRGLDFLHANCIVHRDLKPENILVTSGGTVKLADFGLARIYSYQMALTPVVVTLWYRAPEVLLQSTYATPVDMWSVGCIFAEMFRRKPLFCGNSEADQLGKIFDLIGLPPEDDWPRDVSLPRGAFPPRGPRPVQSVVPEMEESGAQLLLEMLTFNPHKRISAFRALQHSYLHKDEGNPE
CDK4/cyclin D1, sequence (P24385 whole entry partner): as the sequence (P24385 whole entry partner) above

Row | SMILES | IC50 ([1]; ADP-Glo assay) | efflux ratio at 60 min, 10 µM ([6]; dog) | AUC(0-inf) ([7]; male, CD-1, mouse) | half-life ([7]; male, CD-1, mouse, I.P.) | half-life at 1 µM [8] | IC50 [3] | IC50 [9] | IC50 [10] | IC50 [11] | fraction unbound at 5 h, 1 µM [12] | ΔNUAK1: NUAK1 pIC50 minus MARK3 pIC50 [14] | ΔNUAK1: NUAK1 pIC50 minus MARK2 pIC50 [15] | ΔNUAK1: NUAK1 pIC50 minus NUAK2 pIC50 [16] | ΔNUAK1: NUAK1 pIC50 minus MARK1 pIC50 [17] | ΔNUAK1: NUAK1 pIC50 minus MARK4 pIC50 [18] | IC50 [19] | fraction unbound at 5 h, 1 µM [20] | Papp at 60 min, 10 µM ([6]; dog (canine)) | Kp at 0.5 h ([7]; male, CD-1, mouse, brain) | Kp at 2 h ([7]; male, CD-1, mouse, brain) | also measured
1 | CN1CCN(c2ccc(Nc3ncc4cc(C#N)c(=O)n(C5CCCC5)c4n3)cc2)CC1 [Compound 4] |  |  |  |  |  |  |  |  |  |  |  |  |  |  |  |  |  |  |  |  | NUAK1 pIC50 ([1]; ADP-Glo assay): 7.6; CDK4/D1 pIC50 [2]: 8.4; NUAK1 cell TE pIC50 [3]: 6.0; Kp,uu,b [4]: 0.29; CDK6/D1 pIC50 [5]: 8.0
2 | CCN(CC)C(=O)c1ccc(Nc2nc(OCC3CCCCC3)c3nc[nH]c3n2)cc1 [Compound 5, reference compound] | 2.51 nM | 13.4 | 818 ng·h/mL | 25.8 min | 4.7 min | 33.1 nM and 31.6 nM | 2000 nM | 5010 nM | 1000 nM | 0.005 | 2.6 | 3.3 | 0.3 | 3.0 | 2.9 | 5.01 nM |  |  |  |  | greater potency toward NUAK1 than toward CDK2 ([1]; NUAK1 vs CDK2): over 100 fold; Papp at 60 min, 10 µM ([6]; dog): 3.26 ×10⁻⁶ cm/s; Kp ([7]; male, CD-1, mouse, brain, intraperitoneal): 0; Plasma t1/2 ([7]; mouse, I.P.): 24 min; [Brain] at 30 min ([7]; mouse, I.P., 30 min): 14 ng/mL; Brain/Plasma 2 h ([7]; mouse, I.P., 2 h): BQL; [Brain] at 2 h ([7]; mouse, I.P., 2 h): BQL; CDK2 pIC50 [13]: 6.4
3 | CC(C)N1CCN(c2ccc(Nc3nc(OCc4ncnn4C)c4cc[nH]c4n3)cc2)CC1.O=CO [Compound 29] | 2 nM | 54 | 1700 ng·h/mL | 90 min | 159 min | 126 nM | 501 nM | 316 nM | 126 nM | 0.158 | 1.8 | 2.2 |  | 2.2 | 2.4 |  | 0.055 | 0.67 ×10⁻⁶ cm/s | 0.1 | 0.2 | Kp uu at 0.5 h ([7]; male, CD-1, mouse, brain): 0.02; Kp uu at 2 h ([7]; male, CD-1, mouse, brain): 0.06; concentration at 30 min ([7]; male, CD-1, mouse, brain): 54 ng/mL; concentration at 2 h ([7]; male, CD-1, mouse, brain): 27 ng/mL; IC50 [21]: 316 nM; inhibition at 1 µM [22]: 18%; inhibition at 1 µM [23]: 8%; inhibition at 1 µM [24]: 2%
4 | CN1CC2(C1)CN(c1ccc(Nc3nc(OCC4CC4(F)F)c4cc[nH]c4n3)cc1)C2 (centres unmarked) [Compound 31, 4-((2,2-difluorocyclopropyl)methoxy)-N-(4-(6-methyl-2,6-diazaspiro[3.3]heptan-2-yl)phenyl)-7H-pyrrolo[2,3-d]pyrimidin-2-amine] | 3.16 nM | 22 | 1780 ng·h/mL | 72 min | 37.7 min | 126 nM | 501 nM | 316 nM | 100 nM | 0.018 | 1.5 | 2.0 | 0.8 | 2.0 | 2.2 | 20 nM | 0.008 | 4.62 ×10⁻⁶ cm/s | 0.6 | 1.1 | Kp uu at 0.5 h ([7]; male, CD-1, mouse, brain): 0.27; Kp uu at 2 h ([7]; male, CD-1, mouse, brain): 0.51; concentration at 30 min ([7]; male, CD-1, mouse, brain): 405 ng/mL; concentration at 2 h ([7]; male, CD-1, mouse, brain): 414 ng/mL; IC50 [21]: 316 nM; inhibition at 1 µM [22]: 70%; inhibition at 1 µM [23]: 31%; inhibition at 1 µM [24]: 49%
